{
  "source": "patent US20200138829A1",
  "about": "“METHODS OF CANCER TREATMENT” (Ferro Therapeutics, Inc., priority 2017, published 2020)",
  "key": {"Panc1 cells [1]": {"system": "Panc1 cells", "experiment": "Cell viability assay (CellTiter Glo), Panc1", "format": "cell-based", "settings": "Panc1 versus A549", "procedure": "(§1) Cell viability assay was performed to assess the potency of the ferroptosis inducer compounds in various cancer cell lines with K-Ras mutations. […] A series of 9 different concentrations of compound stocks (500×) were created by 3-fold serial dilution in DMSO. […] After 96 hours of incubation, 50 μL of CellTiter Glo reagent (Promega) was added to each well and luminescence was measured after 10 minutes using EnVision (PerkinElmer). […] IC50, relative IC50, or % of top inhibition was calculated. Next, RSL3, ML210, Erastin, and Auranofin were tested on additional K-RAS mutant pancreatic cell lines (Panc1, Panc6.03, Panc2.13, PSN-1, and Capan-1) in Table 1."}, "PSN-1 cells [2]": {"system": "PSN-1 cells", "experiment": "Cell viability assay (CellTiter Glo), PSN-1", "format": "cell-based", "settings": "PSN-1 versus A549", "procedure": "as §1"}, "[3]": {"system": "B cell lymphoma cell lines Mino and Namalwa", "experiment": "Cell viability assay, B cell lymphoma cell lines compared with A549", "format": "cell-based", "settings": "Mino and Namalwa versus A549", "procedure": "Cell viability assay was performed to assess the potency of the ferroptosis inducer compounds in various cancer cell lines with K-Ras mutations. […] A series of 9 different concentrations of compound stocks (500×) were created by 3-fold serial dilution in DMSO. […] After 96 hours of incubation, 50 μL of CellTiter Glo reagent (Promega) was added to each well and luminescence was measured after 10 minutes using EnVision (PerkinElmer). […] […] IC50, relative IC50, or % of top inhibition was calculated."}, "A549 cells [4]": {"system": "A549 cells", "experiment": "Combination proliferation assay with PKC activator, A549", "format": "cell-based", "settings": "inducer at concentration with minimal or no effect alone", "procedure": "(§2) Cell viability assay was performed to assess the potency of the ferroptosis inducer compounds in various cancer cell lines with K-Ras mutations. Cells at a density of 1,000-10,000 cells/well were seeded in 96-well plates and incubated at 37° C. overnight. A series of 9 different concentrations of compound stocks (500×) were created by 3-fold serial dilution in DMSO. These compounds were further diluted in culture media and then added to cells so that the final DMSO concentration was equal to 0.25% or less. After 96 hours of incubation, 50 μL of CellTiter Glo reagent (Promega) was added to each well and luminescence was measured after 10 minutes using EnVision (PerkinElmer). K101A (a PKC activator) was used as the reference compound titrated from top concentration of 30 μM. All compounds were tested initially from 30 μM as the top concentration in duplicates (range of 4.6 nM-30 μM). […] Data was analyzed using XL-fit software (ID Business Solutions Ltd.). IC50, relative IC50, or % of top inhibition was calculated.\n(§3) Therefore, whether PKC activators synergize or antagonize with ferroptosis inducers can be tested empirically."}, "Panc1 cells [5]": {"system": "Panc1 cells", "experiment": "Combination proliferation assay with PKC activator, Panc1", "format": "cell-based", "settings": "inducer up to 1 μM", "procedure": "as §2, §3"}, "Panc2.13 cells": {"system": "Panc2.13 cells", "experiment": "Combination proliferation assay with PKC activator, Panc2.13", "format": "cell-based", "procedure": "as §2, §3"}, "PSN-1 cells [6]": {"system": "PSN-1 cells", "experiment": "Combination proliferation assay with PKC activator, PSN-1", "format": "cell-based", "procedure": "as §2, §3"}, "Capan-1 cells": {"system": "Capan-1 cells", "experiment": "Combination proliferation assay with PKC activator, Capan-1", "format": "cell-based", "procedure": "as §2, §3"}, "KP-4 cells [7]": {"system": "KP-4 cells", "experiment": "Combination proliferation assay with PKC activator, KP-4", "format": "cell-based", "procedure": "as §2, §3"}, "KP-4 cells [8]": {"system": "KP-4 cells", "experiment": "Effect of ferroptosis or apoptosis inhibitor on RSL3- or Erastin-induced cell death, KP-4", "settings": "Homo sapiens, KP-4, read-out: reduction of cell viability compared to DMSO", "procedure": "as §2\nFerroptosis inhibitors include: Ferrostatin-1 and Liproxstatin-1, inhibitors of ROS accumulation; Deferoxamine, an iron chelator; and PD146176, a 15-lipoxygenase inhibitor (see, e.g., Hofman et al., 2016, J Med Chem. March 10; 59(5):2041-53; Yang et al., 2016 Cell 26(3):165-176). The apoptosis inhibitor chosen was ZVAD (see, e.g. Wu et al., 2011, Cell Death and Differentiation 18:26-37). Ferroptosis inhibitors and ZVAD were first titrated as a single agent as shown in Example 1."}, "A549 cells [9]": {"system": "A549 cells", "experiment": "Effect of ferroptosis or apoptosis inhibitor on RSL3- or Erastin-induced cell death, A549", "settings": "Homo sapiens, A549, read-out: reduction of cell viability compared to DMSO", "procedure": "as §2\nFerroptosis inhibitors include: Ferrostatin-1 and Liproxstatin-1, inhibitors of ROS accumulation; Deferoxamine, an iron chelator; and PD146176, a 15-lipoxygenase inhibitor (see, e.g., Hofman et al., 2016, J Med Chem. March 10; 59(5):2041-53; Yang et al., 2016 Cell 26(3):165-176). […]"}},
  "data": [
    {"compound": "CCOc1ccccc1-n1c(C(C)N2CCN(C(=O)COc3ccc(Cl)cc3)CC2)nc2ccccc2c1=O", "note": "(stereo not drawn) [Erastin]", "values": [
      {"measurement": "selectivity for induced cell death in comparison to A549", "setting": "Panc1 cells [1]", "result": "~2", "unit": "fold"},
      {"measurement": "selectivity/sensitivity for induced cell death in comparison to A549", "setting": "PSN-1 cells [2]", "result": "~2", "unit": "fold"},
      {"measurement": "sensitivity to induced cell death in comparison to A549", "setting": "[3]", "result": "not more sensitive"},
      {"measurement": "synergy with K101A or K102 to block proliferation", "setting": "A549 cells [4]", "result": "synergized strongly"},
      {"measurement": "synergy with K101A or K102 to block proliferation", "setting": "Panc1 cells [5]", "result": "No synergistic effects"},
      {"measurement": "effect on the potency of K101A or K102", "setting": "Panc2.13 cells", "result": "only increased the potency"},
      {"measurement": "synergy with K101A or K102 to block proliferation", "setting": "Panc2.13 cells", "result": "synergized"},
      {"measurement": "synergy with K101A (PKC activators) to block proliferation", "setting": "PSN-1 cells [6]", "result": "synergized"},
      {"measurement": "synergy with K101A or K102 to block proliferation", "setting": "Capan-1 cells", "result": "did not synergize"},
      {"measurement": "synergy when combined with K101A or K102", "setting": "KP-4 cells [7]", "result": "only additive effects"},
      {"measurement": "cytotoxicity at 1 µM", "setting": "KP-4 cells [8]", "result": "> 90", "unit": "%"},
      {"measurement": "cytotoxicity at 10 µM", "setting": "A549 cells [9]", "result": "50 to 60", "unit": "%"}
    ]}
  ]
}
